Measurements published in patent US4129659A, “Method for improving cardiovascular function with salinomycin” (The University of Miami, priority 1977, dated 1978).
Like-named read-outs stand apart in the source and are kept apart here.

Tests used:
[1] = tested on: heart and coronary circulation of anesthetized dogs; experiment: Physiological effects of ionophores in anesthetized dogs: inotropic and coronary flow potency relative to lasalocid; type: in vivo, dog
Description: Extended experimental studies were conducted involving a number of ionophores.
^1 Studies conducted on anesthetized dogs.
^2 Ionotropic potencies are expressed as the reciprocal of the dose
required to double dP/dt Max., relative to the dose of Lasolocid required
^3 Coronary flow potency is calculated as the inotropic potency,
normalized for coronary flow by the factor: coronary flow increased
produced by doubling dose of the test ionophore/coronary flow produced by
the doubling dose of Lasalocid.

[2] = tested on: skeletal and cardiac muscle; conditions: prior finding ("it has been shown"); in words; cited from earlier work
[3] = tested on: erythrocytes of whole fresh human blood; experiment: RBC K+ leak: release of erythrocyte potassium into plasma fraction in vitro; type: cell-based; conditions: for Ratio 2/4 (coronary flow potency / RBC K+ leak potency): dog coronary flow vs human RBC K+ leak; for Ratio 2/4 (coronary flow potency / RBC K+ leak potency) / Ratio 1/4 (inotropic potency / RBC K+ leak potency) / RBC K+ Leak Potency (column 4): relative to lasalocid; for Ratio 1/4 (inotropic potency / RBC K+ leak potency): dog inotropy vs human RBC K+ leak; for RBC K+ Leak Potency (column 4): reciprocal of concentration which leaked 15 mM K+/hr from erythrocytes
Description: ^4 RBC K^+ leak potency is the reciprocal of the concentration
which leaked 15 mMK^+ /hr. from the erythrocytes of whole fresh human
blood, relative to that of Lasalocid. The reference concentration of
The intrinsic ability of the test ionophores to release cellular potassium was measured using whole human blood and assaying the release of erythrocyte potassium into the plasma fraction in vitro.

cardiac muscle = conditions: in words; cited from earlier work
Oral LD50 in chickens = conditions: chicken, in vivo, oral administration
intra-cellular Na+ = experiment: Intracellular cation exchange (Na+ for K+); conditions: in exchange for K+; in words
[4] = tested on: skeletal and cardiac muscle; experiment: Skeletal and cardiac myopathy upon chronic administration; type: in vivo; conditions: in words
Oral LD50 in dogs = conditions: dog, in vivo, oral administration
heart = experiment: Studies in anesthetized normal and infarcted dogs and isolated guinea pig and rabbit hearts; type: in vivo, dog; conditions: in words
[5] = tested on: heart and coronary circulation of anesthetized dogs; experiment: Hemodynamic effects of intravenous salinomycin in anesthetized normal dogs; type: in vivo, dog (normal female mongrel dogs); conditions: for Coronary Flow, % of Control / dP/dt, % of Control: Table 1
Description: Normal female mongrel dogs, weighing 30-35 lbs., were anesthetized with intravenous sodium pentobarbital (20 mg/kg.) and artificially ventilated. […] The derivative of the left ventricular pressure (dP/dt) was obtained from a Millar micromanometer-tipped catheter after differentiation by an appropriate R-C circuit. The electrocardiogram was monitored from standard leads attached to the extremities of the dog. All parameters were recorded simultaneously and continuously by a multichannel photographer recorder, and were monitored during the experiments by a multichannel oscilloscope.
After all vital parameters had become stable, 0.03 mg/kg of salinomycin in absolute ethanol was administered over a period of 30 seconds to 1 minute. An hour later a larger dose of 0.06 mg/kg was administered to the same dog.
Further information on the hemodynamic effects of salinomycin were obtained in a study involving seven dogs. Using the same procedure set forth hereinabove and after all vital parameters had become stable, 0.075 mg/kg of salinomycin in absolute ethanol was administered over a period of 30 seconds to one minute.

Solubility in water = type: physicochemical; conditions: in words
[6] = inotropic potency normalized for coronary flow increase at doubling dose, relative to lasalocid, anesthetized dogs
[7] = reciprocal of dose required to double dP/dt Max., relative to lasalocid, anesthetized dogs
[8] = 0.03 mg/kg in absolute ethanol, anesthetized dog
[9] = 0.06 mg/kg, an hour after 0.03 mg/kg, same dog
[10] = 0.075 mg/kg, seven dogs, P <.001
[11] = 0.075 mg/kg, seven dogs, P <.01

COC1CCC(OC2C(C)C(O)(C(C)C(=O)O)OC(CC3CC(OC)C(C)C4(O3)OC(C)(C3CCC(C5CCC(C6OC(C)(O)C(C)C(OC)C6C)O5)O3)C(OC)C4C)C2(C)OC)OC1C (stereo not drawn) [A-204]
coronary flow potency compared with salinomycin ([1]; in words): markedly reduced coronary flow potency than salinomycin | inotropic potency compared with salinomycin ([1]; in words): slightly higher inotropic potency than salinomycin | Coronary Flow Potency [1, 6]: 14.1 | Inotropic Potency [1, 7]: 13.1 | skeletal and cardiac myopathy upon chronic administration [2]: exhibits the undesirable side effects of skeletal and cardiac myopathy upon chronic administration | Ratio 2/4 (coronary flow potency / RBC K+ leak potency) [3]: .34 | Ratio 1/4 (inotropic potency / RBC K+ leak potency) [3]: .32 | increase in potassium cellular leakage potency compared with salinomycin ([3]; human): 400% | RBC K+ Leak Potency (column 4) [3]: 41.0

CO[C@H]1CC[C@@H](O[C@H]2C[C@H]([C@]3(C)CC[C@]4(C[C@H](O)[C@@H](C)[C@@H]([C@@H](C)/C=C(\C)C(=O)[C@H](C)C[C@H](C)C(=O)O)O4)O3)O[C@]3(O[C@@H]([C@H]4O[C@@](O)(CO)[C@H](C)C[C@@H]4C)C[C@@H]3C)[C@@H]2C)O[C@@H]1C [Dianemycin]
Coronary Flow Potency [1, 6]: 4.6 | Inotropic Potency [1, 7]: 4.3 | Ratio 2/4 (coronary flow potency / RBC K+ leak potency) [3]: .25 | Ratio 1/4 (inotropic potency / RBC K+ leak potency) [3]: .24 | RBC K+ Leak Potency (column 4) [3]: 18.0

CC[C@@H](C(=O)[C@@H](C)[C@@H](O)[C@H](C)CCc1ccc(C)c(O)c1C(=O)O)[C@H]1O[C@](CC)([C@H]2CC[C@](O)(CC)[C@H](C)O2)C[C@@H]1C [Lasalocid, lasalocid]
Coronary Flow Potency [1]: 1.0 | Inotropic Potency [1]: 1.0 | Ratio 2/1 (coronary flow potency / inotropic potency) ([1]; relative to lasalocid, anesthetized dogs): 1.0 | cardiac effects (prior art) (cardiac muscle): cardiotrophic properties | Ratio 2/4 (coronary flow potency / RBC K+ leak potency) [3]: 1.0 | Ratio 1/4 (inotropic potency / RBC K+ leak potency) [3]: 1.0 | concentration which leaked 15 mM K+/hr. from erythrocytes ([3]; human): 11.5 µM

CC[C@@]1([C@@H]2O[C@@H]([C@H]3O[C@@](O)(CO)[C@H](C)C[C@@H]3C)C[C@@H]2C)CC[C@H]([C@]2(C)CC[C@]3(C[C@H](O)[C@@H](C)[C@@H]([C@@H](C)[C@@H](OC)[C@H](C)C(=O)O)O3)O2)O1 [Monensin]
Coronary Flow Potency [1, 6]: 10.0 | Inotropic Potency [1, 7]: 6.1 | Ratio 2/4 (coronary flow potency / RBC K+ leak potency) [3]: 1.4 | Ratio 1/4 (inotropic potency / RBC K+ leak potency) [3]: .84 | RBC K+ Leak Potency (column 4) [3]: 7.2

COC1CC(CC2CCC(C)C(C(C)C(=O)O)O2)OC2(OC(C)(C3CCC(C)(C4OC(C5OC(O)(CO)C(C)CC5C)CC4C)O3)CC2C)C1C (stereo not drawn) [Nigerlcin]
Coronary Flow Potency [1, 6]: 3.4 | Inotropic Potency [1, 7]: 2.8 | Ratio 2/4 (coronary flow potency / RBC K+ leak potency) [3]: .21 | Ratio 1/4 (inotropic potency / RBC K+ leak potency) [3]: .17 | RBC K+ Leak Potency (column 4) [3]: 16.4

CC[C@@H](C(=O)[C@@H](C)[C@@H](O)[C@H](C)[C@@H]1O[C@@H]([C@@H](CC)C(=O)O)CC[C@@H]1C)[C@H]1O[C@]2(C=C[C@@H](O)[C@]3(CC[C@@](C)([C@H]4CC[C@](O)(CC)[C@H](C)O4)O3)O2)[C@H](C)C[C@@H]1C [Salinomycin, salinomycin]
LD50 (Oral LD50 in chickens): 125 mg/kg | effect on intra-cellular Na+ (intra-cellular Na+): increase in intra-cellular Na^+ in exchange for K^+ | skeletal and cardiac myopathy upon chronic administration [4]: This undesirable effect has not been shown | LD50 (Oral LD50 in dogs): 10 mg/kg | separation between positive inotropy and coronary vasodilation ([1]; compared with other carboxylic ionophores, in words): more pronounced separation between the two principal cardiotonic responses of positive inotropy and coronary vasodilation | Coronary Flow Potency [1, 6]: 19.6 | Inotropic Potency [1, 7]: 12.1 | effect on cardiac output, coronary flow and myocardial work efficiency (heart): increases in cardiac output, coronary flow and myocardial work efficiency | effect on coronary arteries (heart): dilates the coronary arteries | effect on force of myocardial contraction and heart rate (heart): increases the force of myocardial contraction and heart rate | effect on total peripheral resistance (heart): decreases the total peripheral resistance | Coronary Flow, % of Control [5, 8]: 175% | dP/dt, % of Control [5, 8]: 131% | Coronary Flow, % of Control [5, 9]: 375% | dP/dt, % of Control [5, 9]: 180% | Cardiac Output, Mean % Control [5, 10]: 178% | dP/dt Max., Mean % Control [5, 10]: 204% | Coronary Flow, Mean % Control [5, 11]: 522% | Coronary Resistance, Mean % Control [5, 11]: 38% | Heart Rate, Mean % Control [5, 11]: 113% | Total Peripheral Resistance, Mean % Control ([5]; 0.075 mg/kg, seven dogs, P <.02): 77% | Cardiac Output + Salinomycin (mean ± SE) ([5]; 0.075 mg/kg, seven dogs, control 1.83 ± .2, P <.001): 3.2 ± .2 L/min | Coronary Flow + Salinomycin (mean ± SE) ([5]; 0.075 mg/kg, seven dogs, control 21 ± 4.8, P <.01): 93 ± 19 mL/min | Heart Rate + Salinomycin (mean ± SE) ([5]; 0.075 mg/kg, seven dogs, control 152 ± 7, P <.01): 170 ± 4 min.^-1 | Coronary Resistance + Salinomycin (mean ± SE) ([5]; 0.075 mg/kg, seven dogs, control 460 ± 98, P <.01): 150 ± 25 dynes sec cm^-5 | dP/dt Max. + Salinomycin (mean ± SE) ([5]; 0.075 mg/kg, seven dogs, control 2340 ± 265, P <.001): 4700 ± 618 mm. Hg sec^-1 | Total Peripheral Resistance + Salinomycin (mean ± SE) ([5]; 0.075 mg/kg, seven dogs, control 4200 ± 600, P <.02): 3200 ± 400 dynes sec cm^-5 | ED (2-fold dP/dt max) ([5]; Canis lupus familiaris, iv, in absolute ethanol, anesthetized dogs, read-out: dose that doubles left ventricular max. dP/dt): 0.075 mg/kg | cardiovascular effects (inotropic, chronotropic) ([5]; in words): positive inotropic effects with minimal chronotropic effects | solubility in water (Solubility in water): minimal solubility in water | pharmacological effect vs potassium release, compared with other carboxylic ionophores ([3]; Table 3, columns 5 and 6, in words): superior to all other carboxylic ionophores examined | Ratio 2/4 (coronary flow potency / RBC K+ leak potency) [3]: 1.96 | Ratio 1/4 (inotropic potency / RBC K+ leak potency) [3]: 1.21 | RBC K+ Leak Potency (column 4) [3]: 10.0

CO[C@H]1C[C@@H](C[C@H]2O[C@@](O)([C@H](C)C(=O)O)[C@H](C)[C@H](OC)[C@@]2(C)O[C@H]2CC[C@@H](OC)[C@H](C)O2)O[C@]2(O[C@@](C)([C@@H]3CC[C@H]([C@H]4CC[C@H]([C@H]5O[C@](C)(O)[C@H](C)C[C@@H]5C)O4)O3)[C@H](OC)[C@H]2C)[C@@H]1C [Septamycin]
Inotropic Potency [1, 7]: 2.0

CC[C@@H]1O[C@@H]([C@]2(C)C[C@@H](C)[C@](O)([C@]3(C)CC[C@@H]([C@@H](O)[C@]4(O)O[C@H](C[C@@]5(O)O[C@@H]([C@@H](C)[C@H](O)C[C@H]6CC[C@H](C)[C@@H]([C@@H](C)C(=O)O)O6)CC[C@@H]5C)[C@@H](C)C[C@H]4C)O3)O2)CC[C@@]1(C)O [X-206]
Coronary Flow Potency [1, 6]: 8.6 | Inotropic Potency [1, 7]: 7.7 | Ratio 2/4 (coronary flow potency / RBC K+ leak potency) [3]: .79 | Ratio 1/4 (inotropic potency / RBC K+ leak potency) [3]: .70 | RBC K+ Leak Potency (column 4) [3]: 10.9

NCCc1ccc(O)c(O)c1 [dopamine]
cardiac effects (prior art) (cardiac muscle): exerts positive inotropic and chronotropic effects

Lysocellin
Inotropic Potency [1, 7]: 1.5 | Ratio 1/4 (inotropic potency / RBC K+ leak potency) [3]: .36 | RBC K+ Leak Potency (column 4) [3]: 4.1
